Data from patent US20050255147A1, “Composition for dietary enrichment” (ZOOLIFE INTERNATIONAL LIMITED, priority 2002, published 2005).

System: clown fish
Experiment: Skin coloration of clown fish on supplemented diet
Assay type: in vivo
Details: synthetic astaxanthin 1000 mg/kg granulated diet, compositions below 50 mg/kg astaxanthin in final feed

CC1=C(/C=C/C(C)=C/C=C/C(C)=C/C=C/C=C(C)/C=C/C=C(C)/C=C/C2=C(C)C(=O)[C@@H](O)CC2(C)C)C(C)(C)C[C@H](O)C1=O [synthetic astaxanthin, astaxanthin]
skin coloration: do not to significantly alter skin coloration
